Measured values from ChEMBL document CHEMBL2346597, “Use of core modification in the discovery of CC214-2, an orally available, selective inhibitor of mTOR kinase” (Bioorg Med Chem Lett, 2013).
Each block holds one compound with its values, some of them ahead of it. Activity calls are given as the source filed them. The calls are words filed in the database; no cut-off is given here.

Experiments:
[1] = Inhibition of mTORC2 in human PC3 cells assessed as inhibition of AKTS473 phosphorylation after 1 hr by sandwich immunoassay; type: cell-based; settings: PC-3, 1 h
[2] = biological target: mTORC1 (Homo sapiens, UniProt P42345); assay: Inhibition of mTORC1 in human PC3 cells assessed as inhibition of S6 phosphorylation after 1 hr by sandwich immunoassay; type: cell-based, PC-3
[3] = biological target: Phosphatidylinositol 4,5-bisphosphate 3-kinase catalytic subunit alpha isoform (Homo sapiens, UniProt P42336); assay: Inhibition of PI3Kalpha (unknown origin) by mobility shift assay
Sequence of Phosphatidylinositol 4,5-bisphosphate 3-kinase catalytic subunit alpha isoform (P42336 whole entry, canonical isoform): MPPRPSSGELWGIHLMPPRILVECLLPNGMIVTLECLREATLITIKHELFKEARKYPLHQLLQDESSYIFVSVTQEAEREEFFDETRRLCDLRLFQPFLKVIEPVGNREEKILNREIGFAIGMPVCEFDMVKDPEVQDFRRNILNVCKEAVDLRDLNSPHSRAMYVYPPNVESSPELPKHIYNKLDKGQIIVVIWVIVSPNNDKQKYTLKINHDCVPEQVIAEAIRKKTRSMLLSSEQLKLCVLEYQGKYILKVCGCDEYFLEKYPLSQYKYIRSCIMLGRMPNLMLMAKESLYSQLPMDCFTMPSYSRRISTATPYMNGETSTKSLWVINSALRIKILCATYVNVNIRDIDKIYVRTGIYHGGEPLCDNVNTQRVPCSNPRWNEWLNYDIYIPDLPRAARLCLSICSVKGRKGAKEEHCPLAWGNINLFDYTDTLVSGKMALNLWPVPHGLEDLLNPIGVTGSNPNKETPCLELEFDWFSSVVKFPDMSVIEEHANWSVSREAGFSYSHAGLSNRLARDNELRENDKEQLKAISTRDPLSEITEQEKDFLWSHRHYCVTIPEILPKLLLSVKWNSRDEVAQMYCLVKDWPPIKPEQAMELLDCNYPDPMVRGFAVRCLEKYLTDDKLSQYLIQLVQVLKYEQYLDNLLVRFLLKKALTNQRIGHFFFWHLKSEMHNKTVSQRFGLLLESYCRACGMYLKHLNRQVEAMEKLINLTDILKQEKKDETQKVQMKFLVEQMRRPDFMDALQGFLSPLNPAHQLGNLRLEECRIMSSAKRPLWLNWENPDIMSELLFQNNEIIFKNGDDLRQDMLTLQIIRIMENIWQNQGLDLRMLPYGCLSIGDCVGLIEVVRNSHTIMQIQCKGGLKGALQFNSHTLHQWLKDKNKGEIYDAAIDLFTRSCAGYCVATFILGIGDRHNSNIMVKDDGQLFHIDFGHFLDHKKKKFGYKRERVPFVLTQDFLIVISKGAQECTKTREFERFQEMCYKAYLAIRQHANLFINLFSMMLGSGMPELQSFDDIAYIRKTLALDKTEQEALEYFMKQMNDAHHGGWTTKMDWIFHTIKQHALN

[4] = tested on: PC-3; assay: cells; settings: Homo sapiens, PC-3, 72 h
[5] = Oral bioavailability in rat at 5 mg/kg; type: ADME, organism-based; settings: in vivo
[6] = biological target: Insulin receptor (Homo sapiens) (UniProt P06213); assay: Inhibition of IRK1 (unknown origin) assessed as remaining activity at 10 uM relative to control
Sequence of Insulin receptor (Homo sapiens) (P06213 whole entry, looked up): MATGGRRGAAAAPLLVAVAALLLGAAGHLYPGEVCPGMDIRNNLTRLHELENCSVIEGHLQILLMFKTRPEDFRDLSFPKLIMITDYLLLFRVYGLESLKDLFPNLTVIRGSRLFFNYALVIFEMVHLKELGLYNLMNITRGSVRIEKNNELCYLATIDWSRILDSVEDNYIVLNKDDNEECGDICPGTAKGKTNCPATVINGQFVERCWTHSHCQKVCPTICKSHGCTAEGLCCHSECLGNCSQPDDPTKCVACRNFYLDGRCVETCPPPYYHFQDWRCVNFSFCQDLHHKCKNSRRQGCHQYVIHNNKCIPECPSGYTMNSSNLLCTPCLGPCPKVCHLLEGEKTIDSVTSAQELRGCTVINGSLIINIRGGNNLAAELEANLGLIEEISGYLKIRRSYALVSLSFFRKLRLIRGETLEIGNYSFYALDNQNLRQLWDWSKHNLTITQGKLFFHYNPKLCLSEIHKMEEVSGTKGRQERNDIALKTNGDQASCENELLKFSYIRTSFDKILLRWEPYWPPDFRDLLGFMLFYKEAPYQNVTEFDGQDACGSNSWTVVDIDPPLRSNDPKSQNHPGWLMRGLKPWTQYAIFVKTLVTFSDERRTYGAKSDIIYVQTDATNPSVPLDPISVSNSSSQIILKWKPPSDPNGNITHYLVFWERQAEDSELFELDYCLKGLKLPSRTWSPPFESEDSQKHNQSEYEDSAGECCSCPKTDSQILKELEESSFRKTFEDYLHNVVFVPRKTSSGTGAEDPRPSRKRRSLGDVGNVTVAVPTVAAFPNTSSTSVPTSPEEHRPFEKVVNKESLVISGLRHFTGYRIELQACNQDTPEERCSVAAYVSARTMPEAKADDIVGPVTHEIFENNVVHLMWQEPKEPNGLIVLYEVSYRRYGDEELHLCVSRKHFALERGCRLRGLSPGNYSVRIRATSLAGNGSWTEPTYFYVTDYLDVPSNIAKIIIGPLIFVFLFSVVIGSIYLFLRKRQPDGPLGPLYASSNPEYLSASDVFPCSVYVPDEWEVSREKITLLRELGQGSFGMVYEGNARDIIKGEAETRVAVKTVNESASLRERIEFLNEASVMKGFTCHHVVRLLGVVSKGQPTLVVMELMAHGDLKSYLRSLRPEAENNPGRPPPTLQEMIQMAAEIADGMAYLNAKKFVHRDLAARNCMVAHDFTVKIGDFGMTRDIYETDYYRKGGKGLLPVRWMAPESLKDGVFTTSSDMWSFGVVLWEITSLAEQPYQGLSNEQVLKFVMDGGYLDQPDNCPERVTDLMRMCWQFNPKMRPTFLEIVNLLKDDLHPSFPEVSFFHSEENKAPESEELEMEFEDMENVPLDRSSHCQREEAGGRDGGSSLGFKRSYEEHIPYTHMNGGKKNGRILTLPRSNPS

[7] = Drug uptake in tumor of CB17 SCID mouse xenografted with human PC3 cells at 30 mg/kg, po qd at 24 hrs; type: ADME, organism-based, Neoplasm, PC-3; parameters: dose 30 mg/kg, route oral; settings: read-out: Drug uptake
[8] = Drug uptake in tumor of CB17 SCID mouse xenografted with human PC3 cells at 30 mg/kg, po qd at 8 hrs; type: ADME, organism-based, Neoplasm, PC-3; parameters: dose 30 mg/kg, route oral; settings: read-out: Drug uptake
[9] = Drug uptake in tumor of CB17 SCID mouse xenografted with human PC3 cells at 30 mg/kg, po qd at 2 hrs; type: ADME, organism-based, Neoplasm, PC-3; parameters: dose 30 mg/kg, route oral; settings: read-out: Drug uptake
[10] = Drug uptake in tumor of CB17 SCID mouse xenografted with human PC3 cells at 30 mg/kg, po qd at 4 hrs; type: ADME, organism-based, Neoplasm, PC-3; parameters: dose 30 mg/kg, route oral; settings: read-out: Drug uptake
[11] = tested on: Plasma; assay: Free plasma concentration in CB17 SCID mouse xenografted with human PC3 cells at 30 mg/kg, po qd at 8 hrs; type: ADME, organism-based, PC-3; parameters: dose 30 mg/kg, route oral; settings: in vivo
[12] = tested on: Plasma; assay: Free plasma concentration in CB17 SCID mouse xenografted with human PC3 cells at 30 mg/kg, po qd at 24 hrs; type: ADME, organism-based, PC-3; parameters: dose 30 mg/kg, route oral; settings: in vivo
[13] = tested on: Plasma; assay: Free plasma concentration in CB17 SCID mouse xenografted with human PC3 cells at 30 mg/kg, po qd at 4 hrs; type: ADME, organism-based, PC-3; parameters: dose 30 mg/kg, route oral; settings: in vivo
[14] = tested on: Plasma; assay: Free plasma concentration in CB17 SCID mouse xenografted with human PC3 cells at 30 mg/kg, po qd at 2 hrs; type: ADME, organism-based, PC-3; parameters: dose 30 mg/kg, route oral; settings: in vivo
[15] = Plasma concentration in CB17 SCID mouse xenografted with human PC3 cells at 30 mg/kg, po qd at 24 hrs; type: ADME, organism-based, PC-3; parameters: dose 30 mg/kg, route oral
[16] = Plasma concentration in CB17 SCID mouse xenografted with human PC3 cells at 30 mg/kg, po qd at 4 hrs; type: ADME, organism-based, PC-3; parameters: dose 30 mg/kg, route oral
[17] = Plasma concentration in CB17 SCID mouse xenografted with human PC3 cells at 30 mg/kg, po qd at 8 hrs; type: ADME, organism-based, PC-3; parameters: dose 30 mg/kg, route oral
[18] = Plasma concentration in CB17 SCID mouse xenografted with human PC3 cells at 30 mg/kg, po qd at 2 hrs; type: ADME, organism-based, PC-3; parameters: dose 30 mg/kg, route oral
[19] = Tmax in rat at 5 mg/kg, po; type: ADME, organism-based; parameters: dose 5 mg/kg, route oral; settings: in vivo
[20] = AUC (0 to infinity) in rat at 5 mg/kg, po; type: ADME, organism-based; parameters: time infinity, dose 5 mg/kg, route oral; settings: plasma
[21] = Cmax in rat at 5 mg/kg, po; type: ADME, organism-based; parameters: dose 5 mg/kg, route oral; settings: in vivo
[22] = Mean residence time in rat at 2 mg/kg, iv; type: ADME, organism-based; parameters: dose 2 mg/kg, route intravenous; settings: in vivo
[23] = AUC (0 to infinity) in rat at 2 mg/kg, iv; type: ADME, organism-based; parameters: time infinity, dose 2 mg/kg, route intravenous; settings: plasma
[24] = Volume of distribution at steady state in rat at 2 mg/kg, iv; type: ADME, organism-based; parameters: dose 2 mg/kg, route intravenous; settings: in vivo, read-out: Vdss
[25] = tested on: Mus musculus; assay: In vivo inhibition of mTORC1 in human PC3 cells xenografted in CB17 SCID mouse assessed as inhibition of S6 phosphorylation at 30 mg/kg, po qd measured at 24 hrs relative to vehicle-treated control; type: functional; settings: CB17, PC-3, 24 h
[26] = tested on: Mus musculus; assay: In vivo inhibition of mTORC1 in human PC3 cells xenografted in CB17 SCID mouse assessed as inhibition of S6 phosphorylation at 30 mg/kg, po qd after 2 to 8 hrs relative to vehicle-treated control; type: functional; settings: CB17, PC-3
[27] = Plasma protein binding in CB17 SCID mouse xenografted with human PC3 cells at 30 mg/kg, po qd after 24 hrs; type: ADME, organism-based, PC-3; parameters: dose 30 mg/kg, route oral; settings: read-out: PPB (converted)
[28] = tested on: Mus musculus; assay: Toxicity in CB17 SCID mouse xenografted with human PC3 cells at 10 to 50 mg/kg, po qd administered on day 11 post tumor implantation measured after 32 days; type: organism-based, PC-3; parameters: dose 10-50 mg/kg, route oral; settings: in vivo
[29] = tested on: PC-3; assay: Antitumor activity against human PC3 cells xenografted in CB17 SCID mouse assessed as tumor growth inhibition at 50 mg/kg, po qd administered on day 11 post tumor implantation measured after 32 days relative to vehicle-treated control; type: functional; settings: read-out: TGI
[30] = tested on: PC-3; assay: Antitumor activity against human PC3 cells xenografted in CB17 SCID mouse assessed as tumor growth inhibition at 25 mg/kg, po qd administered on day 11 post tumor implantation measured after 32 days relative to vehicle-treated control; type: functional; settings: read-out: TGI
[31] = tested on: PC-3; assay: Antitumor activity against human PC3 cells xenografted in CB17 SCID mouse assessed as tumor growth inhibition at 10 mg/kg, po qd administered on day 11 post tumor implantation measured after 32 days relative to vehicle-treated control; type: functional; settings: read-out: TGI
[32] = Clearance in rat at 2 mg/kg, iv; type: ADME, organism-based; parameters: dose 2 mg/kg, route intravenous; settings: in vivo
[33] = tested on: PC-3; settings: Homo sapiens
[34] = tested on: PC-3; settings: Homo sapiens; remark: listed apart in the source
[35] = tested on: PC-3; settings: Homo sapiens; remark: listed apart in the source
[36] = tested on: PC-3; settings: Homo sapiens; remark: listed apart in the source
[37] = tested on: Mus musculus; assay: In vivo inhibition of mTORC2 in human PC3 cells xenografted in CB17 SCID mouse assessed as inhibition of AKTS473 phosphorylation at 30 mg/kg, po qd after 2 to 8 hrs relative to vehicle-treated control; settings: CB17, PC-3, po
[38] = tested on: Mus musculus; assay: In vivo inhibition of mTORC2 in human PC3 cells xenografted in CB17 SCID mouse assessed as inhibition of AKTS473 phosphorylation at 30 mg/kg, po qd measured at 24 hrs relative to vehicle-treated control; settings: CB17, PC-3, po

IC50 [1]: 2.55 µM | IC50 [2]: 2.41 µM | IC50 [3]: > 30 µM | IC50 [4]: 4.18 µM
SMILES: CC(C)(O)c1ccc(-c2cnc3[nH]c(=O)n(CC4CCOCC4)c3n2)cn1

bioavailability [5]: 0.85% | IC50 [1]: 0.018 µM | IC50 [2]: 0.04 µM | IC50 [4]: 0.224 µM | activity at 10 µM [6]: 93%
SMILES: O=c1[nH]c2ncc(-c3ccc(-c4nc[nH]n4)cc3)nc2n1CCC1CCOCC1

bioavailability [5]: 0% | IC50 [4]: 0.148 µM
SMILES: O=C1CN(CCC2CCOCC2)c2nc(-c3ccc(-c4nc[nH]n4)cc3)cnc2N1

concentration at 24 h [7]: 190 nM | concentration at 8 h [8]: 1760 nM | concentration at 2 h [9]: 4100 nM | concentration at 4 h [10]: 2870 nM | Cp(f) [11]: 850 nM | Cp(f) [12]: 70 nM | Cp(f) [13]: 1860 nM | Cp(f) [14]: 2390 nM | concentration at 24 h [15]: 190 nM | concentration at 4 h [16]: 5320 nM | concentration at 8 h [17]: 2420 nM | concentration at 2 h [18]: 6830 nM | Tmax [19]: 1.2 h | AUC(0-inf) [20]: 28 µM·h | Cmax [21]: 3300 nM | MRT [22]: 2.7 h | AUC(0-inf) [23]: 10.8 µM·h | Vd [24]: 1.3 L/kg | fraction unbound at 24 h [27]: 0.35 | bioavailability [5]: 100% | clearance [32]: 8.1 mL/min/kg | IC50 [3]: > 30 µM
SMILES: CC(C)(O)c1ccc(-c2cnc3c(n2)N(CC2CCOCC2)CC(=O)N3)cn1
inhibition in vivo at 30 mg/kg [25]: 43% | inhibition in vivo at 30 mg/kg [26]: 87% | Activity [28]: Non-toxic | inhibition in vivo at 50 mg/kg [29]: 84% | inhibition in vivo at 25 mg/kg [30]: 63% | inhibition in vivo at 10 mg/kg [31]: 18% | TGI [33]: Dose-dependent effect | TGI [34]: Active | TGI [35]: Active | TGI [36]: Active | inhibition in vivo at 30 mg/kg [37]: 53% | inhibition in vivo at 30 mg/kg [38]: 28%
